Data: PubChem BioAssay AID1259408 (Genetic Toxicology Data Bank (GENE-TOX), 2018)
The source made the active and inactive calls. The rule behind the calls is not given here.

Tested on: GENE-TOX genotoxicity assays, various organisms and cells
Experiment: GENE-TOX mutagenicity studies
[1] = Species/Cell Type: Drosophila melanogaster, Assay Type: Sex-linked recessive lethal gene mutation, Assay Code: SRLT, Evaluation Type: Evaluation A (Pre-1980)
[2] = Species/Cell Type: Salmonella typhimurium (one or more of the five standard strains: TA98, TA100, TA1535, TA1537, and TA1538), Assay Type: Histidine reverse gene mutation, Ames assay, Assay Code: SAL+, Evaluation Type: Evaluation A (Pre-1980)
[3] = Species/Cell Type: Salmonella typhimurium (one or more of the five standard strains: TA98, TA100, TA1535, TA1537, and TA1538), Assay Type: Histidine reverse gene mutation, Ames assay, Assay Code: SALT, Evaluation Type: Evaluation A (Pre-1980)
[4] = Species/Cell Type: Bacillus subtilis (H17 vs M45), Assay Type: Rec-assay, spot test, DNA effects (bacterial DNA repair), Assay Code: REWT, Evaluation Type: Evaluation A (Pre-1980)
[5] = Species/Cell Type: Human lymphocytes, Assay Type: Sister-chromatid exchange (SCE) in vitro, Assay Code: SCLT, Evaluation Type: Evaluation B (Post-1980)
[6] = Species/Cell Type: Human, Assay Type: Sister-chromatid exchange (SCE) in vitro, Assay Code: SC1T, Evaluation Type: Evaluation B (Post-1980)
[7] = Species/Cell Type: Escherichia coli polA (W3119 vs P3478), Assay Type: Rec-assay, DNA effects (bacterial DNA repair), Assay Code: RE1+, Evaluation Type: Evaluation A (Pre-1980)
[8] = Species/Cell Type: Saccharomyces cerevisiae, Assay Type: Mitotic recombination or gene conversion, Assay Code: YEC+, Evaluation Type: Evaluation A (Pre-1980)
[9] = Species/Cell Type: Salmonella typhimurium (one or more of the five standard strains: TA98, TA100, TA1535, TA1537, and TA1538), Assay Type: Histidine reverse gene mutation, Ames assay, Assay Code: SAL+*, Activation: With metabolic activation, Evaluation Type: Evaluation A (Pre-1980)
[10] = Species/Cell Type: Saccharomyces cerevisiae, Assay Type: Reverse gene mutation, Assay Code: YERT, Evaluation Type: Evaluation A (Pre-1980)
[11] = Species/Cell Type: Chinese hamster lung (V79) cells, Assay Type: Forward gene mutation at the HPRT or ouabain locus, Assay Code: V79+, Evaluation Type: Evaluation A (Pre-1980)

SMILES: Nc1cccc2cccnc12
- mutagenic call [1]: no conclusion
- mutagenic call (Species/Cell Type: Saccharomyces cerevisiae, Assay Type: Forward gene mutation, Assay Code: YEF-*, Activation: With metabolic activation, Evaluation Type: Evaluation A (Pre-1980)): inactive; negative
- mutagenic call (Species/Cell Type: Saccharomyces cerevisiae, Assay Type: Mitotic recombination or gene conversion, Assay Code: YEC-*, Activation: With metabolic activation, Evaluation Type: Evaluation A (Pre-1980)): inactive; negative
- mutagenic call (Species/Cell Type: Saccharomyces cerevisiae, Assay Type: Mitotic recombination or gene conversion, Assay Code: YEH-*, Activation: With metabolic activation, Evaluation Type: Evaluation A (Pre-1980)): inactive; negative
- mutagenic call (Species/Cell Type: Saccharomyces cerevisiae, Assay Type: Reverse gene mutation, Assay Code: YER+, Evaluation Type: Evaluation A (Pre-1980)): active; positive
- mutagenic call [2]: active; positive

SMILES: CC(CN(C)C)Nc1c2ccccc2nc2cccc([N+](=O)[O-])c12 (centres undefined)
- mutagenic call (Species/Cell Type: Human lymphocytes, Assay Type: Sister-chromatid exchange (SCE) in vitro, Assay Code: SCL+, Evaluation Type: Evaluation B (Post-1980)): active; positive
- mutagenic call (Species/Cell Type: Human, Assay Type: Sister-chromatid exchange (SCE) in vitro, Assay Code: SC1+, Evaluation Type: Evaluation B (Post-1980)): active; positive

SMILES: O=[N+]([O-])c1ccc(SSc2ccc([N+](=O)[O-])cc2)cc1
- mutagenic call [2]: active; positive

SMILES: CCCCCCCCCCCCCC(=O)ON(C(C)=O)c1ccc2c(c1)Cc1ccccc1-2
- mutagenic call (Species/Cell Type: Human diploid fibroblasts, Assay Type: Unscheduled DNA synthesis (UDS) in vitro, DNA effects, Assay Code: UDH+, Evaluation Type: Evaluation A (Pre-1980)): active; positive
- mutagenic call [3]: no conclusion

SMILES: O[C@@H]1[C@H](O)[C@@H](O)c2cc3ccc4cccc5ccc(c2[C@@H]1O)c3c45
- mutagenic call (Species/Cell Type: Chinese hamster lung (V79) cells, Assay Type: Forward gene mutation at the HPRT or ouabain locus, Assay Code: V79-*, Activation: With metabolic activation, Evaluation Type: Evaluation A (Pre-1980)): inactive; negative

SMILES: Nc1c(Cl)cc([N+](=O)[O-])cc1Cl
- mutagenic call (Species/Cell Type: Aspergillus nidulans, Assay Type: Aneuploidy, chromosome aberrations, Assay Code: ASNT, Evaluation Type: Evaluation A (Pre-1980)): no conclusion
- mutagenic call [4]: no conclusion
- mutagenic call (Species/Cell Type: Hordeum vulgare (barley), Assay Type: Chromosome aberrations, Assay Code: HOC+, Evaluation Type: Evaluation A (Pre-1980)): active; positive
- mutagenic call (Species/Cell Type: Vicia faba, Assay Type: Chromosome aberrations, Assay Code: VIC+, Evaluation Type: Evaluation A (Pre-1980)): active; positive

SMILES: O=[N+]([O-])c1cnc(CO)n1CCO
- mutagenic call [5]: no conclusion
- mutagenic call [6]: no conclusion

SMILES: CCC(C)c1cc([N+](=O)[O-])cc([N+](=O)[O-])c1O (centres undefined)
- mutagenic call (Species/Cell Type: Bacillus subtilis (H17 vs M45), Assay Type: Rec-assay, spot test, DNA effects (bacterial DNA repair), Assay Code: REW+, Evaluation Type: Evaluation A (Pre-1980)): active; positive
- mutagenic call [1]: no conclusion
- mutagenic call (Species/Cell Type: Escherichia coli WP2 UVRA, Assay Type: Tryptophan reverse gene mutation, Assay Code: WPU-*, Activation: With metabolic activation, Evaluation Type: Evaluation A (Pre-1980)): inactive; negative
- mutagenic call [7]: active; positive
- mutagenic call (Species/Cell Type: Human diploid fibroblasts, Assay Type: Unscheduled DNA synthesis (UDS) in vitro, DNA effects, Assay Code: UDH-, Evaluation Type: Evaluation A (Pre-1980)): inactive; negative
- mutagenic call [8]: active; positive
- mutagenic call (Species/Cell Type: Saccharomyces cerevisiae, Assay Type: Mitotic recombination or gene conversion, Assay Code: YEH-, Evaluation Type: Evaluation A (Pre-1980)): inactive; negative
- mutagenic call [3]: no conclusion

SMILES: Cc1cccc2ncccc12
- mutagenic call [9]: active; positive

SMILES: CCN(CC)Cc1cc(CC(=O)NN)ccc1OC
- mutagenic call [10]: no conclusion

SMILES: CC[C@@H](CO)NC(=O)[C@@H]1C=C2c3cccc4c3c(cn4C)C[C@H]2N(C)C1
- mutagenic call (Species/Cell Type: Rodents, Sex: Male, Assay Type: Dominant lethal test, Assay Code: DLT+, Evaluation Type: Evaluation A (Pre-1980)): active; positive

SMILES: O=C1OC2(c3cc(Br)c(O)cc3Oc3c2cc(Br)c(O)[c]3[Hg])c2ccccc21 (centres undefined)
- mutagenic call (Species/Cell Type: Saccharomyces cerevisiae, Assay Type: Aneuploidy, chromosome aberrations, Assay Code: YEN+, Evaluation Type: Evaluation A (Pre-1980)): active; positive
- mutagenic call [8]: active; positive

SMILES: N#CCC(=O)N/N=C/c1c[n+]([O-])c2ccccc2[n+]1[O-]
- mutagenic call (Species/Cell Type: Mammalian polychromatic erythrocytes, Assay Type: Micronucleus test, chromosome aberrations, Assay Code: MNT+, Evaluation Type: Evaluation B (Post-1980)): active; positive

SMILES: CN(N=O)C(=O)N[C@@H](C=O)[C@@H](O)[C@H](O)[C@H](O)CO
- mutagenic call (Species/Cell Type: Arabidopsis species, Assay Type: Gene mutation, Assay Code: ARM+D, Dose Response: With dose response, Evaluation Type: Evaluation A (Pre-1980)): active; positive
- mutagenic call [11]: active; positive
- mutagenic call [7]: active; positive
- call (Species/Cell Type: Nonhuman, Assay Type: In vivo carcinogenicity studies, Assay Code: CCG+, Evaluation Type: Evaluation A (Pre-1980)): active; positive
- mutagenic call (Species/Cell Type: Nonhuman, Assay Type: Sister-chromatid exchange (SCE) in vivo, Assay Code: SC3+, Evaluation Type: Evaluation B (Post-1980)): active; positive
- mutagenic call [2]: active; positive
- mutagenic call (Species/Cell Type: Salmonella typhimurium, Assay Type: Forward and reverse gene mutation, body fluid assay, Assay Code: BFU+, Evaluation Type: Evaluation A (Pre-1980)): active; positive
- mutagenic call (Species/Cell Type: Salmonella typhimurium, Assay Type: Forward and reverse gene mutation, host-mediated assay, Assay Code: HMA+, Evaluation Type: Evaluation A (Pre-1980)): active; positive

SMILES: Cc1cc(C2(c3ccc(O)c(C)c3)OC(=O)c3ccccc32)ccc1O
- mutagenic call (Species/Cell Type: Allium cepa, Assay Type: Chromosome aberrations, Assay Code: ALC+, Evaluation Type: Evaluation A (Pre-1980)): active; positive

SMILES: Cc1c(C)c2c(c(C)c1O)CCC(C)(CCCC(C)CCCC(C)CCCC(C)C)O2 (centres undefined)
- mutagenic call [5]: no conclusion
- mutagenic call [6]: no conclusion

SMILES: CC(=O)c1ccc([N+](=O)[O-])[nH]1
- mutagenic call [2]: active; positive

SMILES: O.O.O.O.O=C([O-])[O-].[Ni+2].[Ni].[Ni]
- mutagenic call (Species/Cell Type: Nonhuman, Assay Type: Sister-chromatid exchange (SCE) in vitro, Assay Code: SC2+, Evaluation Type: Evaluation B (Post-1980)): active; positive

SMILES: CCCCC(CC)COC(=O)c1ccccc1C(=O)O (centres undefined)
- mutagenic call (Species/Cell Type: Chinese hamster ovary (CHO) cells, Assay Type: Forward gene mutation at the HPRT locus, Assay Code: CHOT, Evaluation Type: Evaluation B (Post-1980)): no conclusion
- mutagenic call (Species/Cell Type: Nonhuman, Assay Type: Sister-chromatid exchange (SCE) in vitro, Assay Code: SC2-, Evaluation Type: Evaluation B (Post-1980)): inactive; negative

SMILES: COC(=O)CN(CC(=O)OC)C1C[C@H]1N(CC(=O)OC)CC(=O)OC (some centres undefined)
- mutagenic call [11]: active; positive

SMILES: COC(=O)Nc1cccc(OC(=O)Nc2cccc(C)c2)c1
- mutagenic call (Species/Cell Type: Aspergillus nidulans, Assay Type: Aneuploidy, chromosome aberrations, Assay Code: ASN+, Evaluation Type: Evaluation A (Pre-1980)): active; positive
- mutagenic call (Species/Cell Type: Saccharomyces cerevisiae, Assay Type: Mitotic recombination or gene conversion, Assay Code: YEC-, Evaluation Type: Evaluation A (Pre-1980)): inactive; negative

SMILES: Oc1cccc2ncccc12
- mutagenic call [9]: active; positive

SMILES: CCN(CC)Cc1cc(CC(=O)NN)ccc1OC(C)C
- mutagenic call [10]: no conclusion

SMILES: O=C1c2cc(O)ccc2-c2ccc(O)c3cccc1c23
- mutagenic call [9]: active; positive

SMILES: O=[N+]([O-])c1ccnc2ccccc12
- mutagenic call (Species/Cell Type: Escherichia coli polA (W3119 vs P3478), Assay Type: Rec-assay, DNA effects (bacterial DNA repair), Assay Code: RE1-, Evaluation Type: Evaluation A (Pre-1980)): inactive; negative

SMILES: NC(=O)OCCO
- mutagenic call (Species/Cell Type: Nonhuman, Assay Type: Sister-chromatid exchange (SCE) in vitro, Assay Code: SC2+*, Activation: With metabolic activation, Evaluation Type: Evaluation B (Post-1980)): active; positive
- mutagenic call (Species/Cell Type: Nonhuman, Assay Type: Sister-chromatid exchange (SCE) in vivo, Assay Code: SC3T, Evaluation Type: Evaluation B (Post-1980)): no conclusion

SMILES: CCCCCCCC(=O)Oc1c(I)cc(C#N)cc1I
- mutagenic call [4]: no conclusion

SMILES: C1=Cc2c(ccc3c2ccc2ccccc23)C1
- mutagenic call [9]: active; positive

SMILES: CN[C@@H](C)Cc1ccccc1
- mutagenic call [1]: no conclusion
